US9895344B2, “Treating various disorders with 7,8-dihydroxyflavone and derivatives thereof” (EMORY UNIVERSITY, priority 2008, dated 2018)

Tests used:
[1] = test system: Erk; experiment: Western analysis of Erk phosphorylation in hippocampal neurons; assay type: cell-based; settings: FIG. 9
Procedure: (§1) To further examine whether 7,8-dihydroxyflavone can stimulate TrkB-mediated downstream signaling cascades, Western analysis was performed.
(§2) To probe the time course of 7,8-dihydroxyflavone triggered TrkB activation, hippocampal neurons were treated with 7,8-dihydroxyflavone at 500 nM and phosphorylation of Erk and Akt was determined over time by Western analysis. […] Stimulation of Erk and Akt by 7,8-dihydroxyflavone also occurred in a dose dependent manner.

[2] = test system: hippocampal neurons; experiment: Glutamate-triggered apoptosis in hippocampal neurons; assay type: cell-based; settings: pretreated 30 minutes, 50 μM glutamate for 16 hours, compared with BDNF, FIG. 6
Procedure: To examine whether these compounds could promote neuronal survival, hippocampal neurons were prepared and the cultures were pretreated with various flavone derivatives for 30 minutes, followed by treatment with 50 μM glutamate for 16 hours.

[3] = test system: T48 cells; experiment: Fluorescent apoptotic assay (Staurosporine, MR(DEVD)2) in TrkB stably transfected T48 cells; assay type: cell-based, murine; settings: for EC50: Mus musculus, T48 cells, FIG. 5, read-out: effective concentration at which 50% (EC50) of the cells are protected from apoptosis; for suppression of apoptosis in T48 cell line: Staurosporine-induced apoptosis, FIG. 1B and FIG. 4
Excerpt: Create and test reporter cell lines. In order to identify small molecules that mimic BDNF and activate TrkB, TrkB stably transfected murine cell lines were created. The T48 and T62 cell lines were created by transfecting basal forebrain SN56 cells, which express negligible TrkB, with a TrkB expression construct. […] To test resistance to apoptosis, SN56 cells and the T48 cell line were either untreated or treated with BDNF, and then subjected to an apoptotic assay. Briefly, the cells were treated with 0.75 μM Staurosporine for 9 hours, and 1 hour before the termination of the experiment, the cells were treated with 10 μM MR (DEVD)2. The cells were then fixed with 4% paraformaldehyde for 15 minutes, washed with phosphate buffered saline (PBS), and incubated with Hoechst 33342 for 10 minutes. Cover slides were washed with PBS, mounted, and the cells were examined using a fluorescent microscope to see which cells turned red upon caspase cleavage.
Cell-based screen. To screen a large number of chemicals, a cell-based apoptic assay was developed using a cell permeable fluorescent dye, MR (DEVD)2, which turns red upon caspase cleavage in apoptotic cells. SN56 and T48 cells were plated at 10,000 cells per well in multiple 96-well plates and exposed to 2000 biologically active compounds from the Spectrum Collection Library for 30 minutes at a concentration of 10 μM in DMSO. Following exposure to the compounds, the cells were subjected to the developed fluorescent apoptotic assay described above (method schematically shown in FIG. 2).
In the initial screen, 5 of the 66 positive compounds were flavone derivatives or similar compounds. […] To compare the apoptosis inhibitory activity, the flavone derivatives were preincubated with SN56 and T48 cells, and subsequently were subjected to the fluorescent apoptotic assay as described above. […] Additionally, the effective concentration at which 50% (EC50) of the cells are protected from apoptosis was determined for 7,8-dihydroxyflavone, Cianidanol, Pinocembrin and Diosmetin.

[4] = test system: Caspase-3 activation; experiment: Glutamate-provoked Caspase-3 activation in wild-type and TrkB-/- cortical neurons; assay type: cell-based, mice; settings: control compounds, FIG. 21
Procedure: To determine whether 7,8-dihydroxyflavone can selectively activate TrkB receptor and prevent neuronal cell death, cortical neurons were prepared from homozygous pups of TrkB+/−mice, which were mated to the same genotype. […] Glutamate nonselectively elicited weak TrkA phosphorylation in both wild-type and TrkB-null neurons (FIG. 21, row 3).

[5] = test system: Akt; experiment: Western analysis of Akt phosphorylation in hippocampal neurons; assay type: cell-based; settings: FIG. 9
Procedure: as §1, §2

[6] = biological target: T1, TrkB (Rattus norvegicus, UniProt Q63604); experiment: TrkB activation in primary cortical neurons (p-TrkB Y817 immunoblotting); assay type: cell-based; design: endogenous in cells; host or cells: primary cortical neurons; settings: 500 nM, 30 min, FIG. 27 left
Procedure: Primary cultured rat cortical neurons were prepared as follows. E17 rat pups were decapitated and cortex was extirpated, cross chopped, and suspended by pipetting for separation in 5% fetal calf serum (FCS), 5% horse serum (HS) DMEM. The cell suspension was then centrifuged at 250×g for 5 minutes. This operation was repeated again. Cells were seeded into polyethyleneimine-coated 10 cm^2 dishes and 12-well plates including coated-coverslips and incubated at 37° C. in 5% CO2/95% air. After 3 hours, the culture medium was changed to Neurobasal containing B-27 supplement (Invitrogen; Carlsbad, Calif.) and incubated for 4 days. For maintenance, half of the culture medium was changed to fresh Neurobasal/B27 every 4 days. After 1 week, the dished cultured neurons were ready for use.
To compare the TrkB activation by the synthetic compounds of Examples 9 and 10 (see FIG. 26), primary cortical cultures were prepared. The cortical neurons were treated with 500 nM of various compounds for 30 min and collected the cell lysates. […] Replacing the H-bond acceptor O atom with hydrogen bond donor NH reduced its stimulatory effect. […] In comparison, 7,8-DHF provoked TrkB activation with the minimal concentration of 100 nM (FIG. 27, right panels).
Target sequence in this assay (Q63604 32-821): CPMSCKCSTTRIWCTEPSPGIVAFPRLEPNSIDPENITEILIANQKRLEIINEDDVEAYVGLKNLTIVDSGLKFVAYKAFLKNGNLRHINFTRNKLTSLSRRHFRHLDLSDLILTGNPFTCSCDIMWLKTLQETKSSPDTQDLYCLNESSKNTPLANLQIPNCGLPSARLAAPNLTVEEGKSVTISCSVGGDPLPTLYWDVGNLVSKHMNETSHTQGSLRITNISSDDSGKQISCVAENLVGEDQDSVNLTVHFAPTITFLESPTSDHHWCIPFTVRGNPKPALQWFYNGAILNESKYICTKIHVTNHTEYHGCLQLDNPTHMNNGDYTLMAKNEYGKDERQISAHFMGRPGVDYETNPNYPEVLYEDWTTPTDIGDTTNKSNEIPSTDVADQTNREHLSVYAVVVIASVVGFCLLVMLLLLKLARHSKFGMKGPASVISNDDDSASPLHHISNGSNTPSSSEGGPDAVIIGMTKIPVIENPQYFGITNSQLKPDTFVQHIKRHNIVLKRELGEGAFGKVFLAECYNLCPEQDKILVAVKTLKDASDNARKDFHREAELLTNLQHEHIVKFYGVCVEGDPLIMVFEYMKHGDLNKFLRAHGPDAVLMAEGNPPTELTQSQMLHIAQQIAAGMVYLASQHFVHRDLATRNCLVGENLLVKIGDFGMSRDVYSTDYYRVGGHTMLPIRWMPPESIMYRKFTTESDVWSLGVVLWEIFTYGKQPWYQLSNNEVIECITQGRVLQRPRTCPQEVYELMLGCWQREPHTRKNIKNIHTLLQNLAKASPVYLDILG

[7] = biological target: T1, TrkB; experiment: TrkB receptor dimerization in cotransfected HEK293 cells (GST pull-down); assay type: cell-based; design: expressed in transfected cells; host or cells: HEK293
Procedure: BDNF is known to bind the TrkB receptor and provoke its dimerization (Barbacid, J. Neurobiol., 25:1386-1403, 1994; Klein et al, Cell, 66:395-403, 1991). To explore whether 7,8-dihydroxyflavone triggers TrkB receptor dimerization, HEK293 cells were cotransfected with GST-TrkB and HA-TrkB or HA-TrkA. The cells were then treated with BDNF or small flavone compounds (0.5 μM) for 30 minutes. The cells were harvested, washed once in PBS, and lysed in 1 ml lysis buffer (50 mM Tris, ph 7.4, 150 mM NaCl, 1 mM EDTA, 0.5% Triton X-100, 1.5 mM Na3VO4, 50 mM NaF, 10 mM sodium pyrophosphate, 10 mM sodium β-glycerophosphate, 1 mM phenylmethylsulfonyl fluoride (PMSF), 5 mg/ml aprotinin, 1 mg/ml leupeptin, 1 mg/ml pepstatin A) and centrifuged for 10 minutes at 14,000×g at 4° C. The supernatant was transferred to a fresh tube and transfected TrkB receptor was separated from the supernatant with glutathione beads, and the coprecipitated proteins were resolved on SDS-PAGE.
Target sequence in this assay (Q63604 32-821): as above
Target sequence in this assay (Q63604 32-821): as above

[8] = biological target: T2, TrkB F616A (Mus musculus, UniProt P15209, F616A); experiment: TrkB phosphorylation in cortical neurons from TrkB F616A knockin mice; assay type: cell-based; settings: inhibitor 100 nM, pretreated 30 minutes
T2 construct: endogenous in cells; host or cells: cortical neurons of TrkB F616A knock-in mice
Procedure: (§3) To explore whether the neuroprotective action of 7,8-dihydroxyflavone is dependent on TrkB activation in vivo, TrkB F616A knockin mice were used. […] To further assess whether 7,8-dihydroxyflavone can mimic BDNF, cortical neurons were prepared from TrkB F616A knockin mice. The cortical neurons were pretreated for 30 minutes with either K252a Trk tyrosine kinase inhibitor (100 nM) or 1NMPP1 inhibitor (100 nM) followed by 0.5 μM 7,8-dihydroxyflavone for 30 minutes.

[9] = test system: Akt and Erk1/2; experiment: Akt and Erk1/2 activation in cortical neurons from TrkB F616A knockin mice; assay type: cell-based; settings: inhibitor 100 nM
Procedure: as §3

[10] = test system: KA-provoked apoptosis; experiment: KA-provoked neuronal cell death in TrkB F616A knockin mice, intraperitoneal (caspase-3 immunoblot); assay type: in vivo
Procedure: To determine if 1NMPP1 would make neurons treated with 7,8-dihydroxyflavone vulnerable to KA-provoked neuronal cell death, TrkF616A knockin mice were fed with 1NMPP1 (25 mM) in drinking water one day prior to pharmacological reagent treatment. The next day, the mice were intraperitoneally injected with KA (25 mg/kg), or 7,8-dihydroxyflavone (5 mg/kg) 4 hours prior to KA injection. The control mice were injected with either KA or 7,8-dihydroxyflavone alone, or the mice were administered 7,8-dihydroxyflavone 4 hours before KA. In 4 days, the mice were sacrificed and the brains were homogenated and ultracentrifuged. The supernatant was employed for SDS-PAGE and immunoblotting analysis.

[11] = test system: immobility time; experiment: Forced swim test in TrkB F616A knockin mice with saline or 1NMPP1 pretreatment; assay type: in vivo; settings: 1NMPP1 25 μM in drinking water
Procedure: To assess whether the behavior responses by 7,8-DHF and its derivative are mediated by TrkB receptor, TrkB F616A knockin mice were utilized. The transgenic mice were subjected to saline or 1NMPP1 pretreatment (25 μM), respectively (drinking water provided one day prior to drug injection and maintained throughout whole experiment). The control and/or drugs were provided for five days. […] (Data presented in FIGS. 34, 35, and 36 as mean±SEM; *p<0.05 against vehicle, #P<0.01 against vehicle and ***P<0.0001 against vehicle, student t-test.)

T2 sequence (P15209 32-821 F616A): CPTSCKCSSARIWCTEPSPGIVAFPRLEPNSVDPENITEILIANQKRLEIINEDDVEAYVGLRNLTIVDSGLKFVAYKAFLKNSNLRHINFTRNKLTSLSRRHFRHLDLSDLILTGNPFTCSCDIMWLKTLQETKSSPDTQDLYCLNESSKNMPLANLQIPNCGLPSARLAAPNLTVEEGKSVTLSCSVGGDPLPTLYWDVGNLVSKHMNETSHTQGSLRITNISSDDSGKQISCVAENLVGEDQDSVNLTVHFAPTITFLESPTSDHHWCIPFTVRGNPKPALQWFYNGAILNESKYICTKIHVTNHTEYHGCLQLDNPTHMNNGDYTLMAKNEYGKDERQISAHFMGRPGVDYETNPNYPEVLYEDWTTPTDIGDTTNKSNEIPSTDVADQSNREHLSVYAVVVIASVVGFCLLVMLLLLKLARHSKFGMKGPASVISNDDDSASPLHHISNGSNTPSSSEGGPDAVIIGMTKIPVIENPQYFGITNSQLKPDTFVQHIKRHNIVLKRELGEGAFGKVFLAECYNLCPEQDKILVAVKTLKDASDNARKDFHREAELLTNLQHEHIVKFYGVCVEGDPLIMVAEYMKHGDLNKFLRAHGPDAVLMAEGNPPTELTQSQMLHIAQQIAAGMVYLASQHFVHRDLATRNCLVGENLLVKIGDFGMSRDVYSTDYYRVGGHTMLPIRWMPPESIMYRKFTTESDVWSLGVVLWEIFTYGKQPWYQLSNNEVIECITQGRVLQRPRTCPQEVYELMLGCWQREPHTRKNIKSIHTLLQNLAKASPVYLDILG

## Oc1cc(O)c2c(c1)O[C@H](c1ccc(O)c(O)c1)[C@@H](O)C2 [Cianidanol]
[1]
  Erk activation (Western): activated
[2]
  protection of hippocampal neurons from glutamate-induced apoptosis: comparable anti-apoptosis activity as BDNF
[3]
  EC50: 100 nM
  suppression of apoptosis in T48 cell line: strongly suppressed apoptosis

## Oc1ccc([C@H]2Oc3cc(O)cc(O)c3C[C@H]2O)cc1 [Epiafzelechin]
[2]
  protection of hippocampal neurons from glutamate-induced apoptosis: only slightly protected neurons
[3]
  suppression of apoptosis in T48 cell line: failed to suppress apoptosis

## COc1ccc(-c2cc(=O)c3c(O)cc(O)cc3o2)cc1O [Diosmetin, reference compound]
[1]
  Erk activation (Western): activated
[2]
  protection of hippocampal neurons from glutamate-induced apoptosis: only slightly protected neurons
[4]
  caspase-3 activation in both wild-type and TrkB-/- neurons: non-selectively suppressed caspase-3 activation in both neurons
[3]
  EC50: 500 nM
  suppression of apoptosis in T48 cell line: strongly suppressed apoptosis
[5]
  Akt activation (Western): activated

## Br.O=c1cc(-c2cncnc2)oc2c(O)c(O)ccc12 [7,8-dihydroxy-2-(pyrimidin-5-yl)-4H-chromen-4-one.HBr]
[6]
  TrkB activation: robustly provoked TrkB activation

## Br.O=c1cc(-c2ccccc2)[nH]c2c(O)c(O)ccc12 [7,8-dihydroxy-2-phenylquinolin-4(1H)-one, 7,8-dihydroxy-2-phenylquinolin-4(1H)-one.HBr]
[6]
  TrkB activation: did not provoke the same level of TrkB activation

## O=C1C[C@@H](c2ccccc2)Oc2cc(O)cc(O)c21 [Pinocembrin, reference compound]
[1]
  Erk activation (Western): activated
[2]
  protection of hippocampal neurons from glutamate-induced apoptosis: comparable anti-apoptosis activity as BDNF
[7]; GST-TrkB and HA-TrkB, 0.5 μM, 30 minutes, FIG. 14
  TrkB dimerization: failed
[4]
  caspase-3 activation in both wild-type and TrkB-/- neurons: non-selectively suppressed caspase-3 activation in both neurons
[3]
  EC50: 100 nM
  suppression of apoptosis in T48 cell line: strongly suppressed apoptosis

## Oc1ccc2c(c1)O[C@H](c1ccc(O)c(O)c1)[C@@H](O)C2 [Fisetinidol]
[2]
  protection of hippocampal neurons from glutamate-induced apoptosis: no effect
[3]
  suppression of apoptosis in T48 cell line: failed to suppress apoptosis

## CC(C)(C)n1nc(Cc2cccc3ccccc23)c2c(N)ncnc21 [1NMPP1]
[8]
  blocking of BDNF-provoked TrkB phosphorylation: selectively blocked
[8]; 0.5 μM 7,8-dihydroxyflavone
  blocking of 7,8-dihydroxyflavone-provoked TrkB phosphorylation: selectively blocked
[9]
  blocking of BDNF-triggered Akt and Erk1/2 activation: blocked
  effect on Akt activation by 7,8-dihydroxyflavone: partially decreased Akt activation
  effect on Erk1/2 activation by 7,8-dihydroxyflavone: failed to inhibit Erk1/2 activation
[10]; 1NMPP1 in drinking water
  effect of pretreatment on KA-provoked apoptosis: elevated KA-provoked apoptosis
[10]; FIG. 24
  apoptosis in TrkB F616A mice, treatment alone without KA: no effect on apoptosis
[11]
  immobility time, 1NMPP1 treated versus saline control groups: No significant difference

## O=c1c(O)c(-c2ccc(O)c(O)c2)oc2cc(O)cc(O)c12 [Quercetin, reference compound]
[1]
  Erk activation (Western): activated

## Br.O=c1cc(-c2ccc(F)cc2)[nH]c2c(O)c(O)ccc12 [2-(4-fluorophenyl)-7,8-dihydroxyquinolin-4(1H)-one.HBr]
[6]
  TrkB activation: did not provoke the same level of TrkB activation

## CC1=CC(=O)c2ccccc2C1=O [Menadione]
[2]
  protection of hippocampal neurons from glutamate-induced apoptosis: comparable anti-apoptosis activity as BDNF
[3]
  suppression of apoptosis in T48 cell line: strongly suppressed apoptosis

B1: BDNF: brain-derived neurotrophic factor, positive control, from Roche (protein, UniProt P23560 19-247, looked up)
Neurotrophic factor BDNF …: APMKEANIRGQGGLAYPGVRTHGTLESVNGPKAGSRGLTSLADTFEHVIEELLDEDQKVRPNEENNKDADLYTSRVMLSSQVPLEPPLLFLLEEYKNYLDAANMSMRVRRHSDPARRGELSVCDSISEWVTAADKKTAVDMSGGTVTVLEKVPVSKGQLKQYFYETKCNPMGYTKEGCRGIDKRHWNSQCRTTQSYVRALTMDSKKRIGWRFIRIDTSCVCTLTIKRGR
[7]; GST-TrkB and HA-TrkA cotransfected
  dimerization of TrkB with TrkA receptor: failed to dimerize with TrkA receptor
[3]
  suppression of apoptosis in T48 cell line: decreased apoptosis
